US8394969B2, “Cyclic benzimidazole derivatives useful as anti-diabetic agents” (Merck Sharp & Dohme Corp., priority 2008, dated 2013)
Structures can show the parent of a compound that is named as a salt. Where two headings read alike, the source gives them in different places.

Target: recombinant human AMPK complex 1 (containing α1β1γ1) (Homo sapiens, UniProt Q13131+Q9Y478)
Test: […] (in vitro AMPK activation assay)
Type: biochemical
Conditions: for Emax: basal activity subtracted
[1] = read-out: % Maximum AMP Activation of human AMPK Complex 1, recombinant human AMPK complex 1 (α1β1γ1)
[2] = recombinant human AMPK complex 1 (α1β1γ1), read-out: % Maximum AMP Activation of human AMPK Complex 1

Sequence of recombinant human AMPK complex 1 (containing α1β1γ1) (Q13131 whole entry): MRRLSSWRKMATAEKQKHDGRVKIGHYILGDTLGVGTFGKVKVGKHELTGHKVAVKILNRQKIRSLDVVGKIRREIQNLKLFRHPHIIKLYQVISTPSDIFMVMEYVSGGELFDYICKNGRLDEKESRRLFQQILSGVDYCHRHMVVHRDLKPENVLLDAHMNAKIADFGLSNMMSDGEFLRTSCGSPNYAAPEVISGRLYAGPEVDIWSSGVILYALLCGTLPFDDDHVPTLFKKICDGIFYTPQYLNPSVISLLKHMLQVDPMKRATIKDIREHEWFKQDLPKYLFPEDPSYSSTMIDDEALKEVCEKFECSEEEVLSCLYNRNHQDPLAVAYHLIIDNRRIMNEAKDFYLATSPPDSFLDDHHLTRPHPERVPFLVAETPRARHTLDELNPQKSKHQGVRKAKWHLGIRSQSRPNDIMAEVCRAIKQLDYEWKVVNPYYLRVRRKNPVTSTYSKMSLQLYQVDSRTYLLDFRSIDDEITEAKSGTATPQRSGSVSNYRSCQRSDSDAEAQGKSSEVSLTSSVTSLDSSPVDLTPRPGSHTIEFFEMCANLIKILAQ
Sequence of recombinant human AMPK complex 1 (containing α1β1γ1) (Q9Y478 whole entry): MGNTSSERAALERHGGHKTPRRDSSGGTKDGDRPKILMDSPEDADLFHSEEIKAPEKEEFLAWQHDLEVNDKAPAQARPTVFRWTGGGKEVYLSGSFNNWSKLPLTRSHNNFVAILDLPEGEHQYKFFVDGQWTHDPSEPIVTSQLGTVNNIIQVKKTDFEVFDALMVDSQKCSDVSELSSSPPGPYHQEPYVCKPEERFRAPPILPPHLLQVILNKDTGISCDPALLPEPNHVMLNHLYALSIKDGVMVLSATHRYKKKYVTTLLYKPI
Sequence of recombinant human AMPK complex 1 (containing α1β1γ1) (P54619 whole entry partner): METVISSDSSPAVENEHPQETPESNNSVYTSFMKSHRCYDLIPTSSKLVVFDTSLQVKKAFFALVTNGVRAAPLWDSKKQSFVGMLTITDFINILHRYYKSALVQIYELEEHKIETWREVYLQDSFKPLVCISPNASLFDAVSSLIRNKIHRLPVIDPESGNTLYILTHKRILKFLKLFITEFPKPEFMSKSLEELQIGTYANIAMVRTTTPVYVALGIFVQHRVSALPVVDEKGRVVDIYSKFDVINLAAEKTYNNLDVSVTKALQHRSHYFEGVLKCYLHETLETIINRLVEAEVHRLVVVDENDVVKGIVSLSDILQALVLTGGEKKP

| SMILES | Emax [2] [%] | other results |
| --- | --- | --- |
| Cc1ccc(-c2cc3nc(Oc4ccc(C)c(C(=O)O)c4)[nH]c3cc2Cl)cc1C [Example 340, Ammonium 5-{[6-chloro-5-(3,4-dimethylphenyl)-1H-benzimidazol-2-yl]oxy}-2-methylbenzoate] | – | Emax [1]: > 80% |
| Cc1ccc(Oc2nc3cc(-c4ccc(-c5ccc(=O)n(C(F)F)c5)cc4)c(Cl)cc3[nH]2)cc1C(=O)O [Example 162, 5-{6-Chloro-5-[4-(1-difluoromethyl-6-oxo-1,6-dihydro-pyridin-3-yl)-phenyl]1H-benzoimidazol-2-yloxy}-2-methyl-benzoic acid] | > 80 | – |
| Cc1ccc(Oc2nc3cc(-c4ccc(C(=O)O)c5c4ccn5C)c(Cl)cc3[nH]2)cc1C(=O)O [Example 271, 4-[2-(3-Carboxy-4-meihyl-phenoxy)-6-chloro-1H-benzoimidazol-5-yl]-1-methyl-1H-indole-7-carboxylic acid] | > 80 | – |
| COc1ccc(C(=O)O)cc1Oc1nc2cc(-c3ccc(-c4ccccc4)cc3)c(Cl)cc2[nH]1 [Example 211, 3-(5-Biphenyl-4-yl-6-chloro-1H-benzoimidazol-2-yloxy)-4-methoxy-benzoic acid] | > 80 | – |
| Cc1ccc(Oc2nc3cc(-c4ccc5c(c4)CNC5=O)c(Cl)cc3[nH]2)cc1C(=O)O [Example 305, 5-[6-Chloro-5-(1-oxo-2,3-dihydro-1H-isoindol-5-yl)-1H-benzoimidazol-2-yloxy]-2-methyl-benzoic acid] | > 80 | – |
| Cc1ccc(Oc2nc3cc(C#Cc4ccc(-c5cnco5)cc4)c(Cl)cc3[nH]2)cc1C(=O)O [Example 120, 5-[6-Chloro-5-(4-oxazol-5-yl-phenylethynyl)-1H-benzoimidazol-2-yloxy]-2-methyl-benzoic acid] | > 80 | – |
| Cc1ccc(Oc2nc3cc(-c4cccc(C(C)C)c4)c(Cl)cc3[nH]2)cc1C(=O)O [Example 339, Ammonium 5-{[6-chloro-5-(3-isopropylphenyl)-1H-benzimidazol-2-yl]oxy}-2-methylbenzoate] | – | Emax [1]: > 80% |
| O=C(O)c1cccc(Oc2nc3cc(-c4ccc(-c5ccccc5)cc4)c(Cl)cc3[nH]2)n1 [Example 214, 6-(5-Biphenyl-4-yl-6-chloro-1H-benzoimidazol-2-yloxy)-pyridine-2-carboxylic acid] | > 80 | – |
| Cc1cc(Oc2nc3cc(-c4ccc5c(c4)OCCN5C)c(Cl)cc3[nH]2)cc(C(=O)O)c1C [Example 312, 5-[6-Chloro-5-(4-methyl-3,4-dihydro-2H-benzo[1,4]oxazin-7-yl)-1H-benzoimidazol-2-yloxy]-2,3-dimethyl-benzoic acid] | > 80 | – |
| COc1ccc(C#Cc2cc3nc(Oc4ccc(C)c(C(=O)O)c4)[nH]c3cc2Cl)cc1 [Example 121, 5-[6-Chloro-5-(4-methoxy-phenylethynyl)-1H-benzoimidazol-2-yloxy]-2-methyl-benzoic acid] | > 80 | – |
| O=C(O)c1ccc(Oc2nc3cc(-c4ccc(-c5ccccc5)cc4)c(Cl)cc3[nH]2)cc1 [Example 38, 4-(5-Biphenyl-4-yl-6-chloro-1H-benzoimidazol-2-yloxy)-benzoic acid] | > 80 | – |
| COc1ccc(-c2cc3nc(Oc4ccc(C)c(C(=O)O)c4)[nH]c3cc2Cl)cc1 [Example 345, Ammonium 5-{[6-chloro-5-(4-methoxyphenyl)-1H-benzimidazol-2-yl]oxy}-2-methylbenzoate] | – | Emax [1]: > 80% |
| COC(=O)c1cc(Oc2nc3cc(-c4ccc(-c5cccnc5)cc4)c(Cl)cc3[nH]2)ccc1C [Example 171, 5-[6-Chloro-5-(4-pyridin-3-yl-phenyl)-1H-benzoimidazol-2-yloxy]-2-methyl-benzoic acid methyl ester] | > 80 | – |
| COC(=O)c1cc(Oc2nc3cc(-c4ccc(-c5ccccc5)cc4)c(Cl)cc3[nH]2)cc(C)c1C(=O)OC [Example 15, 5-(5-Biphenyl-4-yl-6-chloro-1H-benzoimidazol-2-yloxy)-3-methyl-phtalic acid dimethyl ester] | > 80 | – |
| Cc1ccc(Oc2nc3cc(-c4ccc(-c5ccccc5)c(C)c4)c(Cl)cc3[nH]2)cc1C(=O)O [Example 303, 5-[6-Chloro-5-(2-methyl-biphenyl-4-yl)-1H-benzoimidazol-2-yloxy]-2-methyl-benzoic acid] | > 80 | – |
| Cc1ccc(Oc2nc3cc(-c4ccc5c(ccn5CC(F)(F)F)c4)c(Cl)cc3[nH]2)cc1C(=O)O [Example 351, 5-{6-Chloro-5-[1-(2,2,2-trifluoro-ethyl)-1H-indol-5-yl]-1H-benzoimidazol-2-yloxy}-2-methyl-benzoic acid] | > 80 | – |
| Cc1cc(Oc2nc3cc(-c4ccc(-c5ccc(O)nc5)cc4)c(Cl)cc3[nH]2)cc(C(=O)O)c1C [Example 313, 5-{6-Chloro-5-[4-(6-hydroxy-pyridin-3-yl)-phenyl]-1H-benzoimidazol-2-yloxy}-2,3-dimethyl-benzoic acid] | > 80 | – |
| Cc1ccc(Oc2nc3cc(C#Cc4ccc(-c5cc[nH]n5)cc4)c(Cl)cc3[nH]2)cc1C(=O)O [Example 74, 5-{6-Chloro-5-[4-(1H-pyrazol-3-yl)-phenylethynyl]-1H-benzoimidazol-2-yloxy}-2-methyl-benzoic acid] | > 80 | – |

| SMILES | Emax [2] [%] | other results |
| --- | --- | --- |
| Cc1ccc(Oc2nc3cc(-c4ccc5c(c4)CC(=O)N5C)c(Cl)cc3[nH]2)cc1C(=O)O [Example 304, 5-[6-Chloro-5-(1-methyl-2-oxo-2,3-dihydro-1H-indol-5-yl)-1H-benzoimidazol-2-yloxy]-2-methyl-benzoic acid] | > 80 | – |
| CCOC(=O)Cc1ccc(Oc2nc3cc(-c4ccc(-c5ccccc5)cc4)c(Cl)cc3[nH]2)cc1C(=O)OCC [Example 9, 5-(5-Biphenyl-4-yl-6-chloro-1H-benzoimidazol-2-yloxy)-2-ethoxycarbonylmethyl-benzoic acid ethyl ester] | > 80 | – |
| Cc1ccc(Oc2nc3cc(C#Cc4ccc(-c5nc[nH]n5)cc4)c(Cl)cc3[nH]2)cc1C(=O)O [Example 78, 5-{6-Chloro-5-[4-(1H-[1,2,4]triazol-3-yl)-phenylethynyl]-1H-benzoimidazol-2-yloxy}-2-methyl-benzoic acid] | > 80 | – |
| Cc1ccc(Oc2nc3cc(-c4ccc5c(c4)CCN5)c(Cl)cc3[nH]2)cc1C(=O)O [Example 285, 5-[6-Chloro-5-(2,3-dihydro-1H-indol-5-yl)-1H-benzoimidazol-2-yloxy]-2-methyl-benzoic acid] | > 80 | – |
| Cc1nc(-c2ccc(C#Cc3cc4nc(Oc5ccc(C)c(C(=O)O)c5)[nH]c4cc3Cl)cc2)no1 [Example 80, 5-{6-Chloro-5-[4-(5-methyl-[1,2,4]oxadiazol-3-yl)-phenylethynyl]-1H-benzoicmidazol-2-yloxy}-2-methyl-benzoic acid] | > 80 | – |
| Cc1ccc(Oc2nc3cc(-c4ccc(-c5cn[nH]c5)cc4)c(Cl)cc3[nH]2)cc1C(=O)O [Example 202, 5-({6-chloro-5-[4-(1H-pyrazol-4-yl)phenyl]-1H-benzimidazol-2-yl}oxy)-2-methylbenzoic acid] | > 80 | – |
| Cc1ccc(Oc2nc3cc(C#CC4(O)CCCC4)c(Cl)cc3[nH]2)cc1C(=O)O [Example 135, 5[6-Chloro-5-(1-hydroxy-cyclopentylethynyl)-1H-benzoimidazol-2-yloxy]-2-methyl-benzoic acid] | > 80 | – |
| Cc1ccc(Oc2nc3cc(-c4ccc(-c5ccccc5C)cc4)c(Cl)cc3[nH]2)cc1C(=O)O [Example 193, 5-{[6-chloro-5-(2′-methylbiphenyl-4-yl)-1H-benzimidazol-2-yl]oxy}-2-methylbenzoic acid] | > 80 | – |
| COC(=O)c1cc(Oc2nc3cc(-c4ccc(-c5ccncc5)cc4)c(Cl)cc3[nH]2)ccc1C [Example 167, 5-[6-Chloro-5-(4-pyridin-4-yl-phenyl)-1H-benzoimidazol-2-yloxy]-2-methyl-benzoic acid methyl ester] | > 80 | – |
| COC(=O)c1cc(Oc2nc3cc(C#Cc4cccc(OC)c4)c(Cl)cc3[nH]2)ccc1C [Example 109, 5-[6-Chloro-5-(3-methoxy-phenylethynyl)-1H-benzoimidazol-2-yloxy]-2-methyl-benzoic acid methyl ester] | > 80 | – |
| COC(=O)c1cc(Oc2nc3cc(C#Cc4ccccc4C)c(Cl)cc3[nH]2)ccc1C [Example 99, 5-(6-Chloro-5-o-tolylethynyl-1H-benzoimidazol-2-yloxy)-2-methyl-benzoic acid methyl ester] | > 80 | – |
| Cc1cc(Oc2nc3cc(-c4ccc(-c5ccccc5)cc4)c(Cl)cc3[nH]2)cc(C(=O)O)c1 [Example 50, 3-(5-Biphenyl-4-yl-6-chloro-1H-benzoimidazol-2-yloxy)-5-methyl-benzoic acid] | > 80 | – |
| Cc1ccc(Oc2nc3cc(-c4cnc(N5CCCC5)nc4)c(Cl)cc3[nH]2)cc1C(=O)O [Example 257, 2-(3-carboxy-4-methylphenoxy)-6-chloro-5-(2-pyrrolidin-1-yl-pyrimidin-5-yl)-1H-3,1-benzimidazol-3-ium trifluoroacetate] | > 80 | – |
| COC(=O)c1cc(Oc2nc3cc(C#Cc4cncn4C)c(Cl)cc3[nH]2)ccc1C [Example 136, 5-[6-Chloro-5-(3-methyl-3H-imidazol-4-ylethynyl)-1H-benzoimidazol-2-yloxy]-2-methyl-benzoic acid methyl ester] | > 80 | – |
| Cc1ccc(Oc2nc3cc(-c4ccc5c(c4)CCN5CCO)c(Cl)cc3[nH]2)cc1C(=O)O [Example 319, 5-({6-chloro-5-[1-(2-hydroxyethyl)-2,3-dihydro-1H-indol-5-yl]-1 H-benzimidazol-2-yl}oxy)-2-methylbenzoic acid] | > 80 | – |
| Cc1ccc(Oc2nc3cc(C#Cc4ccc(F)cc4)c(Cl)cc3[nH]2)cc1C(=O)O [Example 113, 5-[6-Chloro-5-(4-fluoro-phenylethynyl)-1H-benzoimidazol-2-yloxy]-2-methyl-benzoic acid] | > 80 | – |
| Cc1ccc(Oc2nc3cc(-c4ccc(-c5ccc(C(=O)O)cc5)cc4)c(F)cc3[nH]2)cc1C(=O)O [Example 184, 4′-[2-3-carboxy-4-methylphenoxy-6-fluoro-1H-benzimidazol-5-yl]biphenyl-4-carboxylic acid] | – | EC50 (recombinant human AMPK complex 1 (α1β1γ1), read-out: EC50): 8 nM |
